Experiments:
[1] = Drug uptake in liver of C57BL/6J mouse implanted with mouse B16F0 cells at 3.7 MBq, iv measured at 6 hrs post injection by gamma counting analysis; assay type: ADME, organism-based; details: in vivo
[2] = Drug uptake in intestine of C57BL/6J mouse implanted with mouse B16F0 cells at 3.7 MBq, iv measured at 1 hr post injection by gamma counting analysis; assay type: ADME, organism-based; details: in vivo
[3] = Ratio of drug uptake in tumor to blood in C57BL/6J mouse implanted with mouse B16F0 cells at 3.7 MBq, iv measured at 6 hrs post injection; assay type: ADME, organism-based; details: tumour
[4] = Drug uptake in thyroid/submaxillary glands of C57BL/6J mouse implanted with mouse B16F0 cells at 3.7 MBq, iv measured at 24 hrs post injection by gamma counting analysis; assay type: ADME, organism-based, Submaxillary gland/Thyroid; details: in vivo
[5] = Drug uptake in thyroid/submaxillary glands of C57BL/6J mouse implanted with mouse B16F0 cells at 3.7 MBq, iv measured at 1 hr post injection by gamma counting analysis; assay type: ADME, organism-based, Submaxillary gland/Thyroid; details: in vivo
[6] = Drug uptake in intestine of C57BL/6J mouse implanted with mouse B16F0 cells at 3.7 MBq, iv measured at 6 hrs post injection by gamma counting analysis; assay type: ADME, organism-based; details: in vivo
Mus musculus [7] = experiment: Toxicity in C57BL/6J mouse assessed as closed eyes at 3.7 MBq, iv measured up to 72 hrs post injection; assay type: organism-based; details: in vivo
[8] = Drug uptake in intestine of C57BL/6J mouse implanted with mouse B16F0 cells at 3.7 MBq, iv measured at 3 hrs post injection by gamma counting analysis; assay type: ADME, organism-based; details: in vivo
[9] = Drug uptake in tumor of C57BL/6J mouse implanted with mouse B16F0 cells at 3.7 MBq, iv measured at 72 hrs post injection by gamma counting analysis; assay type: ADME, organism-based, Neoplasm; details: in vivo
[10] = Drug uptake in muscles of C57BL/6J mouse implanted with mouse B16F0 cells at 3.7 MBq, iv measured at 6 hrs post injection by gamma counting analysis; assay type: ADME, organism-based, Muscle tissue; details: in vivo
[11] = Drug uptake in blood of C57BL/6J mouse implanted with mouse B16F0 cells at 3.7 MBq, iv measured at 24 hrs post injection by gamma counting analysis; assay type: ADME, organism-based; details: in vivo
[12] = Drug uptake in thyroid/submaxillary glands of C57BL/6J mouse implanted with mouse B16F0 cells at 3.7 MBq, iv measured at 72 hrs post injection by gamma counting analysis; assay type: ADME, organism-based, Submaxillary gland/Thyroid; details: in vivo
[13] = Drug uptake in blood of C57BL/6J mouse implanted with mouse B16F0 cells at 3.7 MBq, iv measured at 6 hrs post injection by gamma counting analysis; assay type: ADME, organism-based; details: in vivo
[14] = Drug uptake in liver of C57BL/6J mouse implanted with mouse B16F0 cells at 3.7 MBq, iv measured at 72 hrs post injection by gamma counting analysis; assay type: ADME, organism-based; details: in vivo
[15] = Drug uptake in tumor of C57BL/6J mouse implanted with mouse B16F0 cells at 3.7 MBq, iv measured at 1 hr post injection by gamma counting analysis; assay type: ADME, organism-based, Neoplasm; details: in vivo
[16] = Ratio of drug uptake in tumor to muscle in C57BL/6J mouse implanted with mouse B16F0 cells at 3.7 MBq, iv measured at 3 hrs post injection; assay type: ADME, organism-based; details: in vivo
[17] = Drug uptake in eyes of C57BL/6J mouse implanted with mouse B16F0 cells at 3.7 MBq, iv measured at 72 hrs post injection by gamma counting analysis; assay type: ADME, organism-based, Eye; details: in vivo
[18] = Drug uptake in stomach of C57BL/6J mouse implanted with mouse B16F0 cells at 3.7 MBq, iv measured at 6 hrs post injection by gamma counting analysis; assay type: ADME, organism-based; details: in vivo
[19] = Drug uptake in intestine of C57BL/6J mouse implanted with mouse B16F0 cells at 3.7 MBq, iv measured at 72 hrs post injection by gamma counting analysis; assay type: ADME, organism-based; details: in vivo
Mus musculus [20] = experiment: Toxicity in C57BL/6J mouse assessed as rough coat at 3.7 MBq, iv measured up to 72 hrs post injection; assay type: organism-based; details: in vivo
[21] = Drug uptake in kidney of C57BL/6J mouse implanted with mouse B16F0 cells at 3.7 MBq, iv measured at 3 hrs post injection by gamma counting analysis; assay type: ADME, organism-based; details: in vivo
[22] = Drug uptake in muscles of C57BL/6J mouse implanted with mouse B16F0 cells at 3.7 MBq, iv measured at 24 hrs post injection by gamma counting analysis; assay type: ADME, organism-based, Muscle tissue; details: in vivo
[23] = Drug uptake in kidney of C57BL/6J mouse implanted with mouse B16F0 cells at 3.7 MBq, iv measured at 72 hrs post injection by gamma counting analysis; assay type: ADME, organism-based; details: in vivo
[24] = Drug uptake in eyes of C57BL/6J mouse implanted with mouse B16F0 cells at 3.7 MBq, iv measured at 3 hrs post injection by gamma counting analysis; assay type: ADME, organism-based, Eye; details: in vivo
[25] = Drug uptake in muscles of C57BL/6J mouse implanted with mouse B16F0 cells at 3.7 MBq, iv measured at 1 hr post injection by gamma counting analysis; assay type: ADME, organism-based, Muscle tissue; details: in vivo
[26] = Drug uptake in kidney of C57BL/6J mouse implanted with mouse B16F0 cells at 3.7 MBq, iv measured at 1 hr post injection by gamma counting analysis; assay type: ADME, organism-based; details: in vivo
[27] = Drug uptake in muscles of C57BL/6J mouse implanted with mouse B16F0 cells at 3.7 MBq, iv measured at 3 hrs post injection by gamma counting analysis; assay type: ADME, organism-based, Muscle tissue; details: in vivo
[28] = Drug uptake in liver of C57BL/6J mouse implanted with mouse B16F0 cells at 3.7 MBq, iv measured at 1 hr post injection by gamma counting analysis; assay type: ADME, organism-based; details: in vivo
[29] = Drug uptake in blood of C57BL/6J mouse implanted with mouse B16F0 cells at 3.7 MBq, iv measured at 3 hrs post injection by gamma counting analysis; assay type: ADME, organism-based; details: in vivo
[30] = Drug uptake in abdomen of C57BL/6J mouse implanted with mouse B16F0 cells at 3.7 MBq, iv measured at 1 hr post injection by scintigraphic imaging analysis; assay type: ADME, organism-based; details: in vivo
[31] = Drug uptake in muscles of C57BL/6J mouse implanted with mouse B16F0 cells at 3.7 MBq, iv measured at 72 hrs post injection by gamma counting analysis; assay type: ADME, organism-based, Muscle tissue; details: in vivo
[32] = Drug uptake in blood of C57BL/6J mouse implanted with mouse B16F0 cells at 3.7 MBq, iv measured at 1 hr post injection by gamma counting analysis; assay type: ADME, organism-based; details: in vivo
[33] = Drug uptake in bladder of C57BL/6J mouse implanted with mouse B16F0 cells at 3.7 MBq, iv measured at 1 hr post injection by scintigraphic imaging analysis; assay type: ADME, organism-based, Urinary bladder; details: in vivo
[34] = Drug uptake in tumor of C57BL/6J mouse implanted with mouse B16F0 cells at 3.7 MBq, iv measured at 3 hrs post injection by gamma counting analysis; assay type: ADME, organism-based, Neoplasm; details: in vivo
[35] = Drug uptake in eyes of C57BL/6J mouse implanted with mouse B16F0 cells at 3.7 MBq, iv measured at 24 hrs post injection by gamma counting analysis; assay type: ADME, organism-based, Eye; details: in vivo
[36] = Drug uptake in tumor of C57BL/6J mouse implanted with mouse B16F0 cells at 3.7 MBq, iv measured at 6 hrs post injection by gamma counting analysis; assay type: ADME, organism-based, Neoplasm; details: in vivo
[37] = Drug uptake in stomach of C57BL/6J mouse implanted with mouse B16F0 cells at 3.7 MBq, iv measured at 3 hrs post injection by gamma counting analysis; assay type: ADME, organism-based; details: in vivo
[38] = Ratio of drug uptake in tumor to blood in C57BL/6J mouse implanted with mouse B16F0 cells at 3.7 MBq, iv measured at 72 hrs post injection; assay type: ADME, organism-based

| SMILES | Drug uptake [1] | Drug uptake [2] | Ratio [3] | Drug uptake [4] | Drug uptake [5] | Drug uptake [6] | Activity (Mus musculus [7]) | Drug uptake [8] | Drug uptake [9] | Drug uptake [10] | Drug uptake [11] | Drug uptake [12] | Drug uptake [13] | Drug uptake [14] | Drug uptake [15] | Ratio [16] | Drug uptake [17] | Drug uptake [18] | Drug uptake [19] | Activity (Mus musculus [20]) | further results |
| --- | --- | --- | --- | --- | --- | --- | --- | --- | --- | --- | --- | --- | --- | --- | --- | --- | --- | --- | --- | --- | --- |
| CCN(CC)CCNC(=O)c1cnc2cc(NC(=O)COc3ccc(SSCCOC(=O)O[C@H]4C[C@H](n5cc([125I])c(=O)[nH]c5=O)O[C@@H]4CO)cc3)ccc2n1 | 0.47 % ID/g | 2.51 % ID/g | 2.08 | 19.5 % ID/g | 11.05 % ID/g | 1.24 % ID/g | Non-Toxic | 2.88 % ID/g | 0.37 % ID/g | 0.19 % ID/g | 0.13 % ID/g | 11.36 % ID/g | 1 % ID/g | 0.11 % ID/g | 2.23 % ID/g | 5.59 | 0.08 % ID/g | 6.67 % ID/g | 0.27 % ID/g | Non-Toxic | Drug uptake [21]: 1.89 % ID/g; Drug uptake [22]: 0.04 % ID/g; Drug uptake [23]: 0.32 % ID/g; Drug uptake [24]: 0.85 % ID/g; Drug uptake [25]: 0.47 % ID/g; Drug uptake [26]: 1.99 % ID/g; Drug uptake [27]: 0.51 % ID/g; Drug uptake [28]: 1.12 % ID/g; Drug uptake [29]: 2.57 % ID/g; Drug uptake [30]: Active; Drug uptake [31]: 0.06 % ID/g; Drug uptake [32]: 2.14 % ID/g; Drug uptake [33]: Active; Drug uptake [34]: 2.75 % ID/g; Drug uptake [35]: 0.09 % ID/g; Drug uptake [36]: 1.94 % ID/g; Drug uptake [37]: 27.07 % ID/g; Kp at 72 h [38]: 1.12 |
| O=c1[nH]c(=O)n([C@H]2C[C@H](O)[C@@H](CO)O2)cc1[125I] | 0.24 % ID/g | 1.62 % ID/g | 2.58 | 22.45 % ID/g | 13.63 % ID/g | 0.77 % ID/g | Non-Toxic | 1.27 % ID/g | 0.33 % ID/g | 0.11 % ID/g | 0.07 % ID/g | 4.17 % ID/g | 0.52 % ID/g | 0.04 % ID/g | 2.79 % ID/g | 3.75 | 0.03 % ID/g | 4.19 % ID/g | 0.24 % ID/g | Non-Toxic | Drug uptake [21]: 1.08 % ID/g; Drug uptake [22]: 0.02 % ID/g; Drug uptake [23]: 0.08 % ID/g; Drug uptake [24]: 0.43 % ID/g; Drug uptake [25]: 1.13 % ID/g; Drug uptake [26]: 2.57 % ID/g; Drug uptake [27]: 1.06 % ID/g; Drug uptake [28]: 1.3 % ID/g; Drug uptake [29]: 1.49 % ID/g; Drug uptake [30]: Active; Drug uptake [31]: 0.03 % ID/g; Drug uptake [32]: 3.17 % ID/g; Drug uptake [33]: Active; Drug uptake [34]: 1.66 % ID/g; Drug uptake [35]: 0.04 % ID/g; Drug uptake [36]: 1.19 % ID/g; Drug uptake [37]: 12.33 % ID/g; Kp at 72 h [38]: 14.4 |

From ChEMBL document CHEMBL3856199, “Melanoma-targeted delivery system (part 2): Synthesis, radioiodination and biological evaluation in B16F0 bearing mice” (Eur J Med Chem, 2016)
